According to EPA's ToxValDB 9.5:
Where a name gives a salt, the structure may show the parent alone.

Tested on: Rattus norvegicus
Conditions: oral
[1] = subchronic, gavage, M, Sprague-Dawley, Clinical Observation: Salivation Clonic convulsion + Body Weight Changes: Body weight gain decrease + Food Consumption: decrease + Water …
[2] = short-term, duration: 28 days, gavage, F, Sprague-Dawley, Clinical Observation: Piloerection + Urinalysis: pH decrease, K decrease + Relative Organ Weight: Spleen increase
[3] = short-term, duration: 28 days, gavage, M, Sprague-Dawley, Clinical Observation: Piloerection + Urinalysis: pH decrease, K decrease + Relative Organ Weight: Spleen increase
[4] = short-term, duration: 28 days, gavage, M, Sprague-Dawley, Clinical Observation: Salivation + Urinalysis: Volume increase + Blood Chemistry: Ch E increase, T-CHO increase + Absolute Organ Weight: …
[5] = subchronic, gavage, M, Sprague-Dawley, Water Consumption: increase + Urinalysis: Osmotic pressure decrease, Volume increase, R
[6] = subchronic, gavage, M, Sprague-Dawley, Clinical Observation: Salivation + Urinalysis: Volume increase, Tubular epithelial cell + Blood Chemistry: PL increasegamma-GTP increase, TP…

With `CC(C)(C)c1cc(-n2nc3ccc(Cl)cc3n2)c(O)c(C(C)(C)C)c1` the NOAEL (subchronic, duration: 42 days, gavage, M, CD(SD), Hematology: RBC decrease, NEUT increase, APTT decrease + Blood Chemistry: ALB increase, A/G increase, ALP increase, T-BIL decreasea2-GLOB …) was 2.5 mg/kg-day.

With `N#CC(Cl)(Cl)Cl` [Trichloroacetonitrile] the NOEL (short-term, duration: 28 days, gavage, M/F, Clinical Observation: Salivation Locomotor activity decrease, Bradypnea Ptosis Flushing of auricle Staggering gait + Body Weight Changes: …) was 40 mg/kg-day.

`ClCBr` [Bromochloromethane] was tested, and the NOEL (subchronic, duration: 42 days, gavage, M, CD(SD), Absolute Organ Weight: Liver increase + Relative Organ Weight: Liver increase + Necropsy: Stomach-Dark red focus, glandular stomach + …) was 30 mg/kg-day.

With `Nc1ccc(Nc2ccccc2)cc1` [N-Phenyl-1,4-benzenediamine] the NOAEL (subchronic, duration: 90 days, diet, M, Wistar, Body Weight Changes: Body weight gain decrease + Food Consumption: decrease + Hematology: RBC decrease, HGB decrease, HCT decrease, MCV …) was 96 mg/kg-day.

In the case of `CC[Si](Cl)(Cl)Cl` [Ethyl silicon trichloride], the NOAEL (short-term, duration: 28 days, gavage, M/F, Wistar, Clinical Observation: Staggering gait + Body Weight Changes: decrease + Relative Organ Weight: Liver increase, (Low and middle doses were …) is reported as 250 mg/kg-day.

For `CN(c1nccc(=O)[nH]1)C1CCN(c2nc3ccccc3n2Cc2ccc(F)cc2)CC1` [Mizolastine], the NOAEL (chronic, duration: 182 days, gavage, M/F, Sprague-Dawley, Clinical Observation: Salivation + Urinalysis: Volume increase + Blood Chemistry: IP increase + Absolute Organ Weight: Liver increase, …) was 5 mg/kg-day.

`O[Si](O)(C1CCCC1)C1CCCC1` [Dicyclopentylsilanediol] gave an NOEL (subchronic, duration: 90 days, gavage, M, Sprague-Dawley, Clinical Observation: Ataxic gait SalivationDecreased locomotor activity + Blood Chemistry: TG decrease + Relative Organ Weight: Liver …) of 40 mg/kg-day.

`CC(C)N1C(=O)C=CC1=O` [1-(Propan-2-yl)-1H-pyrrole-2,5-dione] gave an NOEL (short-term, duration: 28 days, gavage, M/F, Clinical Observation: Salivation + Organ Weight: Liver increase, Kidney increase + Necropsy: Liver- Enlargement Kidney- Enlargement) of 40 mg/kg-day.

Work on `Clc1ccc(Cl)nn1` [Pyridazine, 3,6-dichloro-] yielded an NOEL (short-term, duration: 28 days, gavage, F, Sprague-Dawley, Body Weight Changes: decrease, Weight gain decrease + Food Consumption: decrease + Urinalysis: BIL increase + Blood Chemistry: TP increase, …) of 10 mg/kg-day.

Work on `CC(C)CC(C)(C#N)N=NC(C)(C#N)CC(C)C` (stereo unspecified) [2,2'-Azobis[2,4-dimethylvaleronitrile]] yielded an NOEL (subchronic, gavage, M, Sprague-Dawley, Clinical Observation: Salivation + Blood Chemistry: gamma- GTP increase, TG decrease + Absolute Organ Weight: Liver increase, R + Relative …) of 10 mg/kg-day.

`CC(C)(C1CCC(O)CC1)C1CCC(O)CC1` (stereo unspecified) [4,4'-Propane-2,2-diyldicyclohexanol] was tested, and the NOEL (subchronic, gavage, M, Sprague-Dawley, Hematology: APTT increase, PT increase + Blood Chemistry: TG increase, TP increase, Ca increasegamma-GTP increase, Glu decrease, Cho …) was 20 mg/kg-day.

Work on `C[Si](C)(C)O` [Trimethylsilanol] yielded an NOAEL (short-term, duration: 28 days, gavage, M/F, Wistar, Clinical Observation: Staggering gait + Body Weight Changes: Body weight gain decrease + Relative Organ Weight: Liver increase + …) of 250 mg/kg-day.

In the case of `COc1c(Cl)c(Cl)c(Cl)c(Cl)c1Cl` [Pentachloroanisole], the NOEL (subchronic, duration: 13 weeks, gavage, M/F, Fischer 344, Deaths + Clinical Observation: Labored respiration + Body Weight Changes: decrease + Blood Chemistry: Ch E decrease + Absolute Organ Weight…) is reported as < 40 mg/kg-day.

With `CC(=O)OC1CCCCC1C(C)(C)C` (stereo unspecified) [2-tert-Butylcyclohexyl acetate] the NOAEL [1] was < 50 mg/kg-day and the NOEL [1] was < 50 mg/kg-day.

Work on `C1=Cc2cccc3cccc1c23` [Acenaphthylene] yielded an NOEL (short-term, duration: 28 days, gavage, M/F, Crl:CD(SD), Deaths + Clinical Observation: Salivation, Rough coat, Wasting, Rearing cunut decrease + Functional Observational Battery: Forearm strength…) of 4 mg/kg-day.

`O=C(O)c1cccc([N+](=O)[O-])c1C(=O)O` [3-Nitrophthalic acid] gave an NOAEL [2] of 500 mg/kg-day, an NOEL [2] of 500 mg/kg-day and an LOEL [3] of 500 mg/kg-day. The NOAEL [3] was 500 mg/kg-day and the NOEL [3] was 100 mg/kg-day.

With `NS(=O)(=O)Cc1noc2ccccc12` [Zonisamide] the NOAEL (short-term, duration: 28 days, gavage, M/F, Sprague-Dawley, Deaths + Clinical Observation: Locomotor activity decrease, Ataxic gait Hypotonia, Abdominal region + Body Weight Changes: Body weight gain …) was 20 mg/kg-day.

In the case of `OCC#CCO` [2-Butyne-1,4-diol], the NOEL (short-term, duration: 28 days, gavage, M/F, Wistar, Deaths + Body Weight Changes: decrease + Food Consumption: decrease + Hematology: RET increase, WBC increase, Neut increase, Lymph increase…) is reported as 1 mg/kg-day.

Work on `Cc1cc(S(=O)(=O)[O-])c(N)cc1Cl.[Na+]` yielded an NOEL (subchronic, gavage, M, Sprague-Dawley, Food Consumption: increase + Urinalysis: pH decrease + Absolute Organ Weight: Kidney increase + Relative Organ Weight: Kidney increase) of 300 mg/kg-day.

`CCCCCOC(=O)c1c(Cl)c(Cl)cc(Cl)c1OC(=O)C(=O)Oc1c(Cl)cc(Cl)c(Cl)c1C(=O)OCCCCC` [Bis(2,4,5-trichloro-6-carbopentoxyphenyl) oxalate] was tested, and the NOEL (short-term, duration: 28 days, gavage, M/F, Deaths + Clinical Observation: Salivation + Hematology: PT increase, APTT increase + Blood Chemistry: TP increase, ALB increase, TG …) was < 8 mg/kg-day.

With `CCCCC(CC)(CO)CO` [2-Butyl-2-ethyl-1,3-propanediol] the NOAEL (subchronic, gavage, M, Sprague-Dawley, Clinical Observation: Staggering gait + Water Consumption: increase + Urinalysis: pH decrease + Hematology: LYMPH increase, NEUT decrease + …) was 20 mg/kg-day.

For `NNC(=O)CCCCC(=O)NN` [Hexanedihydrazide], the NOEL (subchronic, gavage, M, Sprague-Dawley, Clinical Observation: Emaciation R Incontinence of urine R Diarrhea R Loose stool R + Relative Organ Weight: Thymus increase, Kidney …) was 85 mg/kg-day.

`CC(C)Nc1ccc(NC(C)C)c2c1C(=O)c1ccccc1C2=O` [1,4-Bis(N-isopropylamino)anthraquinone] was tested, and the NOEL (subchronic, duration: 42 days, gavage, M, CD(SD), Clinical Observation: Dark purple feces Purple urine Purple colored skin + Urinalysis: Lite purple colored urine Purple colored urine + …) was 12 mg/kg-day.

`COCCC(=O)OC` [Methyl 3-methoxypropionate] was tested, and the NOEL (subchronic, duration: 42 days, gavage, M, Sprague-Dawley, Clinical Observation: Salivation + Food Consumption: decrease + Urinalysis: Volume increasep H decrease + Hematology: Mono increase + Blood …) was 62.5 mg/kg-day.

In the case of `CC(=O)C=Cc1ccccc1` [Methyl styryl ketone], the NOEL (short-term, duration: 28 days, gavage, M/F, Sprague-Dawley, Functional Observational Battery: Salivation Rearing decrease + Urinalysis: KET increase + Blood Chemistry: T-Cho increase + Absolute Organ …) is reported as 60 mg/kg-day.

In the case of `Nc1ccccc1C(=O)O` [Anthranilic acid], the NOAEL [4] is reported as 200 mg/kg-day and the NOEL [4] is reported as < 200 mg/kg-day.

`COC(CCl)OC` [Ethane, 2-chloro-1,1-dimethoxy-] was tested, and the NOEL (short-term, duration: 28 days, gavage, M/F, Blood Chemistry: GPT increase, ALP increase, T-Bil increase, IP decrease + Organ Weight: Liver increase, Spleen decrease, Kidney increase, …) was 15 mg/kg-day.

For `O=[N+]([O-])c1ccc(Cl)c(Cl)c1` [3,4-Dichloronitrobenzene], the NOEL (subchronic, gavage, M, Sprague-Dawley, Hematology: RBC decrease, Hct decrease, MCV increase, MCH increase, Hgb decrease, MCHC decrease, Ret increase + Blood Chemistry: T-Bil: …) was < 4 mg/kg-day.

For `CO[Si](OC)(OC)c1ccccc1` [Trimethoxyphenylsilane], the NOAEL (short-term, duration: 28 days, gavage, M, Han Wistar, Body Weight Changes: decrease + Food Consumption: decrease + Blood Chemistry: BUN increase, BA increase, T-Cho increase + Absolute Organ …) was < 100 mg/kg-day.

`CC(=O)O.O=C(NCC1CCCCN1)c1cc(OCC(F)(F)F)ccc1OCC(F)(F)F` (stereo unspecified) [Flecainide acetate] gave an NOAEL (chronic, duration: 91 days, gavage, F, Sprague-Dawley, Deaths + Clinical Observation: Patchy hair loss Salivation + Water Consumption: increase + Urinalysis: Volume increase, Protein decrease + …) of 20 mg/kg-day and an NOAEL (chronic, duration: 91 days, gavage, M, Sprague-Dawley, Deaths + Clinical Observation: Patchy hair loss Salivation + Water Consumption: increase + Urinalysis: Volume increase, Protein decrease + …) of 10 mg/kg-day.

`COc1ccc([N+](=O)[O-])cc1N=Nc1c(O)c(C(=O)Nc2cccc([N+](=O)[O-])c2)cc2ccccc12` [C.I. Pigment Red 23] was tested, and the NOEL (subchronic, duration: 13 weeks, diet, M/F, Fischer 344, Hematology: Hct decrease, Hgb decrease, RBC decrease + Blood Chemistry: LDH increase + Absolute Organ Weight: Liver + Relative Organ Weight…) was < 288 mg/kg-day.

In the case of `Nc1nc(=S)[nH][nH]1` [3-Amino-1,2,4-triazole-5-thiol], the NOEL (subchronic, gavage, M/F, Sprague-Dawley, Deaths + Clinical Observation: White turbid urine SalivationSoft stool + Body Weight Changes: decrease + Food Consumption: decrease + …) is reported as 10 mg/kg-day.

`COc1ccccc1OCCNCC(O)COc1cccc2[nH]c3ccccc3c12` (stereo unspecified) [Carvedilol] showed an NOEL (chronic, duration: 91 days, gavage, M/F, Wistar, Deaths + Clinical Observation: Salivation Lacrimation Ptosis Locomotor activity decrease + Body Weight Changes: Body weight gain decrease + …) of 30 mg/kg-day.

For `O=C(c1ccc(Cl)cc1)c1ccccc1Cl` [2,4'-Dichlorobenzophenone], the NOEL (subchronic, gavage, M, Sprague-Dawley, Clinical Observation: Salivation (transient) + Functional Observational Battery: Salivation + Body Weight Changes: Gain decrease(trend) + …) was 40 mg/kg-day.

Work on `NCCS(=O)(=O)O` [l-Taurine] yielded an LOEL [5] of 1000 mg/kg-day, an NOAEL [5] of 1000 mg/kg-day and an NOEL [5] of 300 mg/kg-day.

In the case of `BrC1CCC(Br)C(Br)CCC1Br` (stereo unspecified) [1,2,5,6-Tetrabromocyclooctane], the NOEL (subchronic, gavage, M, Sprague-Dawley, Food Consumption: decrease, R (recovery day3) + Blood Chemistry: TP increase, Alb increase + Absolute Organ Weight: Liver increase + …) is reported as < 40 mg/kg-day.

Molecule `CC(C)OC(=O)C(C)(C)Oc1ccc(C(=O)c2ccc(Cl)cc2)cc1` [Fenofibrate] has an NOAEL (chronic, duration: 91 days, gavage, M/F, CD, Body Weight Changes: decrease + Food Consumption: decrease + Urinalysis: WBCEpithelial cell + Hematology: RBC decrease, HCT decrease, HGB …) of 5 mg/kg-day.

Work on `CCCCCCCC1CCCC1=O` (stereo unspecified) [2-Heptylcyclopentanone] yielded an NOAEL [6] of 200 mg/kg-day and an NOEL [6] of 50 mg/kg-day.

In the case of `CCCC[B-](c1ccccc1)(c1ccccc1)c1ccccc1.CCCC[N+](CCCC)(CCCC)CCCC` [Tetrabutylammonium butyltriphenylborate], the NOEL (short-term, duration: 28 days, gavage, M/F, Blood Chemistry: GPT increase, CHE decrease + Histopathology: Thymus-Proliferation, histiocyte Thymus-Atrophy Adrenal-Decreased lipoid) is reported as < 3 mg/kg-day.

Work on `NC(=O)c1cccnc1` [Niacinamide] yielded an NOAEL (short-term, duration: 28 days, gavage, M/F, Wistar, Body Weight Changes: decrease + Food Consumption: decrease + Blood Chemistry: AST increase, ALT increase, T-Cho increase, ALP increase, BUN …) of 215 mg/kg-day.

`COc1cc(N)ccc1NC(=O)c1ccc(N)cc1` [4-Amino-N-(4-amino-2-methoxyphenyl)benzamide] gave an NOEL (short-term, duration: 28 days, gavage, M/F, Deaths + Clinical Observation: Locomotor activity increase, Tremor (temporary)Loss of righting reflex Motor ataxia Lethargy (severe) + Blood…) of 10 mg/kg-day.
